Drawing on patent publication US20120245137A1 (Zalicus Pharmaceuticals Ltd., priority 2009, published 2012), this text covers IC50 for 24 compounds.

Type in all cases: cell-based
For test [1], the target named is human α1G T-type channels (Homo sapiens, UniProt O43497). The test can be described thus: T-type calcium channel block, whole cell patch clamp, α1G. Conditions: HEK cells stably expressing human α1G; mainly non-inactivated protocol; values above 10,000 nM represented as 10000. In outline: (§1)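 Read-out: current block in whole-cell patch clamp of HEK 293 cells stably expressing human α1G or α1H subunits. Compounds were perfused locally in external solution (0.1-0.01% DMSO) under resting and inactivating voltage protocols.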
Background: Patch clamp records ionic current or voltage across a cell membrane.

Test [2] addresses human α1H T-type channels (Homo sapiens, UniProt O95180). The test can be described thus: T-type calcium channel block, whole cell patch clamp, α1H. Conditions: HEK cells stably expressing human α1H; mainly non-inactivated protocol; values above 10,000 nM represented as 10000. In outline:
as §1

The target of test [3] is N-type calcium channel subunits (α1B, α2δ, and β3a) (Homo sapiens, UniProt Q00975). The test can be described thus: Block of Cav2.2 channel, whole cell voltage clamp, manual and PatchXpress. The conditions noted are these: Table 5; table follows Assay Example 3 (whole cell voltage clamp / PatchXpress); assay not given. In outline: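 Percent block taken as current amplitude ratio with versus without compound, applied in rising doses; IC50 fitted where one cell received multiple doses. Protocol: 50 ms pulses to +20 mV at 0.067 Hz from […] or −90 mV holding; P/n leak subtraction, no junction-potential correction; manual and PatchXpress recordings.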
Chain of N-type calcium channel subunits (α1B, α2δ, and β3a) (Q00975 whole entry): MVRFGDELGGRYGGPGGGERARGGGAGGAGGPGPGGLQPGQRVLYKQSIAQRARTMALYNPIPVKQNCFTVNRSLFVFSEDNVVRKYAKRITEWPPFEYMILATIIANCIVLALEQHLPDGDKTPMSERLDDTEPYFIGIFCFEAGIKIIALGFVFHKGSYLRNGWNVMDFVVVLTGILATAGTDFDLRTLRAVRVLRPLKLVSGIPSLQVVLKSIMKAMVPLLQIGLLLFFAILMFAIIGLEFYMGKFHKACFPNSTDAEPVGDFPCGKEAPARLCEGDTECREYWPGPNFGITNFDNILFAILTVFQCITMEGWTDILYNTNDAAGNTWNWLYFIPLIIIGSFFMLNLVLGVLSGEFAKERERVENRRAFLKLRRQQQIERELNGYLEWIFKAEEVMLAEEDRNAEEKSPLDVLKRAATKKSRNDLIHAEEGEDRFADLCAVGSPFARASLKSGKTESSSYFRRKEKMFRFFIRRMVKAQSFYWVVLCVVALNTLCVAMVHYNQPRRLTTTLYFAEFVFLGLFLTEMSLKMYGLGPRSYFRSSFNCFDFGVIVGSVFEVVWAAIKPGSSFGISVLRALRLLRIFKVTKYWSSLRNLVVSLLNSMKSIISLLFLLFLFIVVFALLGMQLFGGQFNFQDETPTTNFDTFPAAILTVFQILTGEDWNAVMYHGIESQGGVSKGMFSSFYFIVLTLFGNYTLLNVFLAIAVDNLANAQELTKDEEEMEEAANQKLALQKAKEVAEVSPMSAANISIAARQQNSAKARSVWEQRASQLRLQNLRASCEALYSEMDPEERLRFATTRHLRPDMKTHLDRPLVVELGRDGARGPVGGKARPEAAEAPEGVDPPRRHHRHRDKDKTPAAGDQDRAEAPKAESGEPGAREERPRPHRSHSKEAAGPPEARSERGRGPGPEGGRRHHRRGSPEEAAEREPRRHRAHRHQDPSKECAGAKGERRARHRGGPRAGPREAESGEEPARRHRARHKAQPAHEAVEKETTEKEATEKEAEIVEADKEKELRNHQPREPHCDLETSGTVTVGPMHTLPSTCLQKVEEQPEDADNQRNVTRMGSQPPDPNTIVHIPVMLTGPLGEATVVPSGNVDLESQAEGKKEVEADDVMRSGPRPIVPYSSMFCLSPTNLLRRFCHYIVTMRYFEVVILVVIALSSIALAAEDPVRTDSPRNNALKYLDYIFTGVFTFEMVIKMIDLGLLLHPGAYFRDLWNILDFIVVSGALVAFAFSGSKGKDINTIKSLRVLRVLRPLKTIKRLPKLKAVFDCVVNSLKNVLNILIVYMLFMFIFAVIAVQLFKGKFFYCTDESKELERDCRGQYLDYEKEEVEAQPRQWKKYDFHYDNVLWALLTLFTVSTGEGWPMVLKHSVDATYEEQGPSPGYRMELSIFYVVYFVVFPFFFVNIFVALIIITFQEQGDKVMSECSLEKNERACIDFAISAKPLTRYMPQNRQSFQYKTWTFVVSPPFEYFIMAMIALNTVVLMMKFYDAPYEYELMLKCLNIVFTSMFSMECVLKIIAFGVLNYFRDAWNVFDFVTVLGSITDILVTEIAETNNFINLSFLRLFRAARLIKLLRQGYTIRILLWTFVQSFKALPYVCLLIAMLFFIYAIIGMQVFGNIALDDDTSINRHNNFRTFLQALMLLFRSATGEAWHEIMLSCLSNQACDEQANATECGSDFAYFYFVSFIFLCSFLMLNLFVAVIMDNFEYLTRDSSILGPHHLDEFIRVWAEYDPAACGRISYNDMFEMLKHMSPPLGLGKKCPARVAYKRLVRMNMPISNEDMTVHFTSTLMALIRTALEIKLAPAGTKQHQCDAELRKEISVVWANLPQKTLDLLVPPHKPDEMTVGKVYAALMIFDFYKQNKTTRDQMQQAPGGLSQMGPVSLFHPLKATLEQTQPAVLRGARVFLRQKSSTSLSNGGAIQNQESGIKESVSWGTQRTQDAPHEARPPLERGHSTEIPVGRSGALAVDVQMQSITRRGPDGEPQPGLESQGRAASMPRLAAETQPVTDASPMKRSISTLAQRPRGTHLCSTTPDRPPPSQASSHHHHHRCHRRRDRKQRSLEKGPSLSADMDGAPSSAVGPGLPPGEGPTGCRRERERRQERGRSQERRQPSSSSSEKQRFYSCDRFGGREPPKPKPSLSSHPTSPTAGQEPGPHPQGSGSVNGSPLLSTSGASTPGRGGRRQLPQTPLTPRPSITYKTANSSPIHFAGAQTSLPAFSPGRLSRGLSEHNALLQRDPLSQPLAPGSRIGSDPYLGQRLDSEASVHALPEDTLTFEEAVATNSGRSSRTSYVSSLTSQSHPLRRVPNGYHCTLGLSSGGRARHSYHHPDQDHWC
Chain of N-type calcium channel subunits (α1B, α2δ, and β3a) (P54289 25-1103 partner): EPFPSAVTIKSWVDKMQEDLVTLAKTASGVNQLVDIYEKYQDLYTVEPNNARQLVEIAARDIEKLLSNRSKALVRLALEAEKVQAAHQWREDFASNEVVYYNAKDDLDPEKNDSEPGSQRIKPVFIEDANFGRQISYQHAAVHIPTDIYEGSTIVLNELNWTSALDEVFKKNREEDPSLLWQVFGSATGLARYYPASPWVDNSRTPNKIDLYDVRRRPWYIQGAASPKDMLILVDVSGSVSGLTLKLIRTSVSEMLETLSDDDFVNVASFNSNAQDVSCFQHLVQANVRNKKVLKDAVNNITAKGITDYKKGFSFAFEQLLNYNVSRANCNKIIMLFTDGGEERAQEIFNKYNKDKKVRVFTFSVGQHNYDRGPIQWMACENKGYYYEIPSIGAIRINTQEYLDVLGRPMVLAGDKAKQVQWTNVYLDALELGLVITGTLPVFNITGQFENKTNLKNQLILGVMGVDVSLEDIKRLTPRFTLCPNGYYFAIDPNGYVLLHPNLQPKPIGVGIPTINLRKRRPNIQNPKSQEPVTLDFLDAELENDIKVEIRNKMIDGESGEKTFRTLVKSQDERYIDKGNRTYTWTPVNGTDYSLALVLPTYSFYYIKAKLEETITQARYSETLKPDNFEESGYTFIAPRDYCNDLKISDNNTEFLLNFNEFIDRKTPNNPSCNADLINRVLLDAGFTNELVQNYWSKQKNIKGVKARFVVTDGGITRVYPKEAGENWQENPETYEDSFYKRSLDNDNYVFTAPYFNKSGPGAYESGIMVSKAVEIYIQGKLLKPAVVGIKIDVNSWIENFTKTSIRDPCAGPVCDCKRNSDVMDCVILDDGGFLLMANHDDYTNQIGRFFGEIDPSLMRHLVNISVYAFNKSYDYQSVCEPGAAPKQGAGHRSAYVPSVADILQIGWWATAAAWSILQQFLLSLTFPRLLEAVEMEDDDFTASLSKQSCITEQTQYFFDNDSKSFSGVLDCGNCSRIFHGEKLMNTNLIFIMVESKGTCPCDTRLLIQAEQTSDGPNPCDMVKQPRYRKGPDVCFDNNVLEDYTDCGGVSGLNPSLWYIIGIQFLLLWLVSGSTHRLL
Chain of N-type calcium channel subunits (α1B, α2δ, and β3a) (P54284 whole entry partner): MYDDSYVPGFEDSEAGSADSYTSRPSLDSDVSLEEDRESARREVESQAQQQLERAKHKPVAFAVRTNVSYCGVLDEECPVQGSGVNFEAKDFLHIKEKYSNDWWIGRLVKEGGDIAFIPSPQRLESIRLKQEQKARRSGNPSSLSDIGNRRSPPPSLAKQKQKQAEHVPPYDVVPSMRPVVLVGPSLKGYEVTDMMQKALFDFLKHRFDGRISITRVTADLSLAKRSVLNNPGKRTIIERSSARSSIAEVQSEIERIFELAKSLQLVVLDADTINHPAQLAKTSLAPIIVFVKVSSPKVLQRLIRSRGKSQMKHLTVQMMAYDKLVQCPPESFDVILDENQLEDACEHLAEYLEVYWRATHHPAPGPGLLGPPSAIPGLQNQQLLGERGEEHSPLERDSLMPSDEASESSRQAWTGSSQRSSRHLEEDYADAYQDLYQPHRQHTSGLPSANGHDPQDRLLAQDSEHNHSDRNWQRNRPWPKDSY

Take `CC(C)(C)NC(=O)CN[C@H]1CC[C@@H](S(=O)(=O)c2cccc(C(F)(F)F)c2)CC1` [Compound 49, N-tert-butyl-2-((1S,4S)-4-(3-(trifluoromethyl)phenylsulfonyl)cyclohexylamino)acetamide]: the IC50 – broadly, the point on the concentration scale where inhibition reaches its midpoint – is > 10000 nM in test [1], > 10000 nM in test [2] and 200 nM in test [3].

In the case of `O=C(N[C@H]1CC[C@H](S(=O)(=O)c2cccc(C(F)(F)F)c2)CC1)c1cc(F)cc(Cl)c1` [Compound 60, 3-chloro-5-fluoro-N-((1R,4R)-4-(3-(trifluoromethyl)phenylsulfonyl)cyclohexyl)benzamide], the figures for the 50% inhibitory concentration (IC50) in test [1], in test [2] and in test [3] were 6440 nM, 3900 nM and 370 nM, respectively.

As to `O=C(N[C@H]1C[C@H](CS(=O)(=O)c2cccc(C(F)(F)F)c2)C1)c1ccc(F)c(C(F)(F)F)c1` [Compound 345, 4-fluoro-3-(trifluoromethyl)-N-((1R,3R)-3-((3-(trifluoromethyl)phenylsulfonyl)methyl)cyclobutyl)benzamide], the IC50 in test [1] was found to be 5530 nM; in test [2] it was 1930 nM; in test [3], 580 nM.

For `O=C(N[C@H]1CC[C@H](S(=O)(=O)c2cccc(C(F)(F)F)c2)CC1)C1(C(F)(F)F)CCC1` [Compound 66, 1-(trifluoromethyl)-N-((1R,4R)-4-(3-(trifluoromethyl)phenylsulfonyl)cyclohexyl)cyclobutanecarboxamide], the values for the 50% inhibitory concentration (IC50) in test [1], in test [2] and in test [3] were > 10000 nM, > 10000 nM and 8990 nM, respectively.

With `O=C(N[C@H]1C[C@H](S(=O)(=O)c2cccc(C(F)(F)F)c2)C1)c1ccc(Cl)c(F)c1` [Compound 429, 4-chloro-3-fluoro-N-((1S,3S)-3-(3-(trifluoromethyl)phenylsulfonyl)cyclobutyl)benzamide], the IC50 in test [1] is > 10000 nM; in test [2] it was 8370 nM; in test [3], 770 nM.

For `Cn1nc(C(F)(F)F)cc1C(=O)NC1CCC(S(=O)(=O)c2cccc(C(F)(F)F)c2)CC1` (stereo not drawn) [Compound 13, 1-methyl-3-(trifluoromethyl)-N-(4-(3-(trifluoromethyl)phenylsulfonyl)cyclohexyl)-1H-pyrazole-5-carboxamide], the IC50 is > 10000 nM in test [1], > 10000 nM in test [2] and 690 nM in test [3].

`O=C(N[C@H]1CC[C@@](F)(S(=O)(=O)c2cccc(C(F)(F)F)c2)CC1)C1Cc2ccccc2N1` (stereo partly drawn) [Compound 279, N-((1S,4S)-4-fluoro-4-(3-(trifluoromethyl)phenylsulfonyl)cyclohexyl) indoline-2-carboxamide]: the figures for the half-maximal inhibitory concentration (IC50) in test [1], in test [2] and in test [3] were > 10000 nM, 2090 nM and 450 nM, respectively.

As for `CC1(C(=O)N[C@H]2CC[C@@](F)(S(=O)(=O)c3cccc(C(F)(F)F)c3)CC2)CC1` [Compound 303, N-((1S,4S)-4-fluoro-4-(3-(tritluoromethyl)phenylsulfonyl)cyclohexyl)-1-methylcyclopropane carboxamide], the IC50 in test [1] was 4340 nM; in test [2], 4150 nM; in test [3] it was 180 nM.

`CN(C(=O)c1ccc(F)c(C(F)(F)F)c1)[C@H]1CC[C@@](F)(S(=O)(=O)c2cc(F)cc(C(F)(F)F)c2)CC1` [Compound 334, 4-fluoro-N-((1S,4S)-4-fluoro-4-(3-fluoro-5-(trifluoromethyl)phenylsulfonyl)cyclohexyl)-N-methyl-3-(trifluorornethyl) benzamide]: the IC50 was > 10000 nM in test [1], 2390 nM in test [2] and 360 nM in test [3].

As to `O=C(N[C@H]1C[C@H](CS(=O)(=O)c2cccc(C(F)(F)F)c2)C1)c1ccc(Cl)c(F)c1` [Compound 343, 4-chloro-3-fluoro-N-((1R,3R)-3-((3-(trifluoromethyl)phenylsulfonyl)methyl)cyclobutyl)benzamide], the IC50 in test [1] was found to be 630 nM; in test [2] it was 270 nM; in test [3] it was 1450 nM.

Consider `COc1cc(F)cc(C(=O)NC2CCC(S(=O)(=O)c3cccc(C(F)(F)F)c3)CC2)c1` (stereo not drawn) [Compound 25, 3-fluoro-5-methoxy-N-(4-(3-(trifluoromethyl)phenylsulfonyl)cyclohexyl)benzamide], for which the half-maximal inhibitory concentration (IC50) in test [1] stood at 2790 nM; in test [2], 4660 nM; in test [3] it was 360 nM.

Regarding `O=C(Nc1cccc(C(F)(F)F)n1)[C@H]1C[C@@H](S(=O)(=O)c2cccc(C(F)(F)F)c2)C1` [Compound 412, (1S,3S)-3-(3-(trifluoromethyl)phenylsulfonyl)-N-(6-(trifluoromethyl)pyridin-2-yl)cyclobutanecarboxamide], the IC50 in test [1] amounted to 6810 nM; in test [2] it was 1550 nM; in test [3], 590 nM.

For `O=C(N[C@H]1CC[C@H](S(=O)(=O)c2cccc(C(F)(F)F)c2)CC1)c1cc(F)cc(C(F)(F)F)c1` [Compound 65, 3-fluoro-5-(trifluoromethyl)-N-((1R,4R)-4-(3-(trifluoromethyl)phenylsulfonyl)cyclohexyl)benzamide], the concentration for half-maximal inhibition (IC50) in test [1] was > 10000 nM; in test [2], > 10000 nM; in test [3], 550 nM.

Consider `O=C(NC1CCC(S(=O)(=O)c2cccc(C(F)(F)F)c2)CC1)c1cc(F)cc(Cl)c1` (stereo not drawn) [Compound 26, 3-chloro-5-fluoro-N-(4-(3-(trifluoromethyl)phenylsulfonyl)cyclohexyl)benzamide], for which the IC50 in test [1] is 2790 nM; in test [2], > 10000 nM; in test [3], 210 nM.

Take `O=C(NC[C@H]1C[C@H](S(=O)(=O)c2cc(F)cc(C(F)(F)F)c2)C1)c1ccc(F)c(C(F)(F)F)c1` [Compound 389, 4-fluoro-N-(((1R,3R)-3-(3-fluoro-5-(trifluoromethyl)phenylsulfonyl)cyclobutyl)methyl)-3-(trifluoromethyl) benzamide]: the values for the concentration for half-maximal inhibition (IC50) in test [1], in test [2] and in test [3] were 6080 nM, 8980 nM and 270 nM, respectively.

Regarding `CC(C)S(=O)(=O)c1cc(C(F)(F)F)cnc1C(=O)N[C@H]1CC[C@H](CS(=O)(=O)c2cccc(C(F)(F)F)c2)CC1` [Compound 341, 3-(isopropylsulfonyl)-5-(trifluoromethyl)-N-((1R,4R)-4-((3-(trifluoromethyl)phenylsulfonyl)methyl)cyclohexyl)picolinamide], the IC50 in test [1] was determined as 2190 nM; in test [2], 2020 nM; in test [3], 510 nM.

Take `CN(C(=O)CN[C@H]1CC[C@@H](CS(=O)(=O)c2cccc(C(F)(F)F)c2)CC1)C(C)(C)C` [Compound 145, N-tert-butyl-N-methyl-2-((1S,4S)-4-((3-(trifluoromethyl)phenylsulfonyl)methyl)cyclohexylamino)acetamide]: the IC50 in test [1] came to 5830 nM; in test [2] it was 1340 nM; in test [3], 1190 nM.

Turning to `O=S(=O)(NC[C@H]1C[C@H](S(=O)(=O)c2cccc(C(F)(F)F)c2)C1)c1ccc(C(F)(F)F)cc1Cl` [Compound 423, 2-chloro-4-(trifluoromethyl)-N-(((1R,3R)-3-(3-(trifluoromethyl)phenylsulfonyl)cyclobutyl)methyl)benzenesulfonamide], the 50% inhibitory concentration (IC50) is > 10000 nM in test [1], > 10000 nM in test [2] and 1280 nM in test [3].

Take `O=C(NC[C@H]1CC[C@@H](S(=O)(=O)c2cccc(C(F)(F)F)c2)CC1)c1ccc(F)c(C(F)(F)F)c1` [Compound 31, 4-fluoro-3-(trifluoromethyl)-N-(((1S,4S)-4-(3-(trifluoromethyl)phenylsulfonyl)cyclohexyl)methyl)benzamide]: the IC50 came to 1150 nM in test [1], 5540 nM in test [2] and 360 nM in test [3].

With `CC1(NC(=O)c2ccc(F)c(C(F)(F)F)c2)CCC(F)(S(=O)(=O)c2cccc(C(F)(F)F)c2)CC1` (stereo not drawn) [Compound 92, 4-fluoro-N-(4-fluoro-1-methyl-4-(3-(trifluoromethyl)phenylsulfonyl)cyclohexyl)-3-(trifluoromethyl)benzamide], the half-maximal inhibitory concentration (IC50) was determined as 2230 nM in test [1], 640 nM in test [2] and 330 nM in test [3].

Regarding `Cc1cc(C(=O)N[C@H]2CC[C@@H](S(=O)(=O)c3cccc(C(F)(F)F)c3)CC2)c(C(F)(F)F)o1` [Compound 198, 5-methyl-2-(trifluoromethyl)-N-((1S,4S)-4-(3-(trifluoromethyl)phenylsulfonyl)cyclohexyl)furan-3-carboxamide], the 50% inhibitory concentration (IC50) was > 10000 nM in test [1], > 10000 nM in test [2] and 270 nM in test [3].

In the case of `O=C(NC[C@H]1C[C@H](S(=O)(=O)c2cccc(C(F)(F)F)c2)C1)c1ccc(F)c(Cl)c1` [Compound 357, 3-chloro-4-fluoro-N-(((1R,3R)-3-(3-(trifluorornethyl)phenylsulfonyl)cyclobutyl)methyl)benzamide], the IC50 in test [1] was > 10000 nM; in test [2], > 10000 nM; in test [3], 200 nM.

`O=S(=O)(N[C@H]1CC[C@@](F)(S(=O)(=O)c2cccc(C(F)(F)F)c2)CC1)c1cccc(C(F)(F)F)c1` [Compound 300, N-((1S,4S)-4-fluoro-4-(3-(trifluoromethyl)phenylsulfonyl)cyclohexyl)-3-(trifluoromethyl) benzenesulfonamide]: the results for the half-inhibitory concentration (IC50) in test [1], in test [2] and in test [3] were 280 nM, 430 nM and 700 nM, respectively.

Turning to `O=C(NC[C@H]1C[C@@H](S(=O)(=O)c2cccc(C(F)(F)F)c2)C1)c1ccc(F)c(Cl)c1` [Compound 379, 3-chloro-4-fluoro-N-(((1S,3S)-3-(3-(trifluoromethyl)phenylsulfonyl)cyclobutyl)methyl)benzamide], the 50% inhibitory concentration (IC50) in test [1] was found to be 1810 nM; in test [2] it was 300 nM; in test [3], 830 nM.
